{"source": "patent EP0190496A2", "about": "“Piperidine derivatives having a gastro-intestinal activity” (BEECHAM GROUP PLC, priority 1984, dated 1986)", "note": "Where a name gives a salt, the structure may show the parent alone.", "data": [{"tested_on": "ethanol-induced gastric mucosal erosive damage in the rat", "experiment": "Inhibition of ethanol-induced gastric mucosal erosive damage (antiulcer test)", "type": "in vivo", "settings": "Oral Dose 25 µmol/kg, 90 min before 1 ml/rat p.o. absolute ethanol; stomach scored 10 min later; * p<0.05, ** p<0.01, *** p<0.001 (Mann-Whitney U-test)", "source_text": "The object of the experiment was to test the ability of drugs to inhibit a state of gastric submucosal haemorrhage induced by absolute ethanol in the conscious rat.\nThe procedure used was as follows. Male rats, preferably Wistars, were fasted overnight in wire mesh bottom cages, so as to prevent copraphagy. Water was allowed ad. libitum. Six or seven rats per cage were regarded as suitable, and the weight range of the rats used was between 175 and 300g. Water was removed one hour prior to treatment. The rats were then randomly allocated to their respective treatment groups, so that there were no less than five rats per group. One control group was always included.\nEach rat was pre-dosed with lml/100g of control or test drug, dissolved or suspended in 0.5% methyl cellulose or 1% Tween 80 in water, via an oral dosing needle. Ninety minutes later each rat was dosed with lml/rat p.o. of absolute ethanol. Ten minutes after the absolute ethanol, the rats were killed by an intracardiac injection of Expiral^*. The stomachs were excised, cut open along the greater curvature to expose the mucosal surface, washed in tap water to remove debris, then stretched on a cork board for examination.\nA subjective macroscopic examination of the stomach was carried out with a damage score being allocated to each stomach. Two observers were usually used, one of whom scored the results in a 'blinded' manner. The results were then analysed by the Mann-Whitney U-test, with p<0.05 being regarded as statistically significant.\n^*(sodium pentobarbitone solution 200mg/ml)", "values": [{"compound": "(+) cis-l-(4'-Fluorobenzyl)-4-(4'-fluorophenyl)-3-(3', 4'-methylenedioxyphenoxymethyl)piperidine hydrochloride [Example 12]", "% Inhibition of gastric erosions": "84.9** %"}, {"compound": "(+)cis-1-Benzyl-4-(4'-fluorophenyl)3-(3',4'-methylene- dioxyphenoxymethyl)piperidine hydrochloride [Example 7]", "% Inhibition of gastric erosions": "63.1** %"}, {"compound": "(-) cis-l-(4'-Fluorobenzyl)-4-(4'-fluorophenyl)-3-(3', 4'-methylenedioxyphenoxymethyl)piperidine hydrochloride [Example 13]", "% Inhibition of gastric erosions": "46** %"}, {"compound": "(-)cis-l-Benzyl-4-(4'-fluorophenyl)-3-(3',4'-methylene- dioxyphenoxymethyl)piperidine hydrochloride [Example 8]", "% Inhibition of gastric erosions": "46.8* %"}]}, {"tested_on": "ethanol-induced gastric mucosal erosive damage in the rat", "experiment": "Inhibition of ethanol-induced gastric mucosal erosive damage (antiulcer test)", "type": "in vivo", "settings": "Oral Dose 25 µmol/kg, 90 min before 1 ml/rat p.o. absolute ethanol; stomach scored 10 min later; * p<0.05, ** p<0.01, *** p<0.001 (Mann-Whitney U-test); read-out: % Inhibition of gastric erosions", "units": {"inhibition in vivo at 25 µmol/kg": "%"}, "values": [{"compound": "COc1ccccc1[C@@H]1CCN(Cc2ccccc2)C[C@H]1COc1ccc2c(c1)OCO2", "note": "(racemic) [Example 2, (±)trans 1-Benzyl-4-(2'-methoxyphenyl)-3-(3',4'-methylenedioxyphenoxymethyl)piperidine hydrochloride]", "inhibition in vivo at 25 µmol/kg": 47.7}, {"compound": "Fc1ccc(C2=CCN(Cc3ccccc3)CC2COc2ccc3c(c2)OCO3)cc1", "note": "(racemic) [Example 11, (±)-1-Benzyl-4-(4'-fluorophenyl)-3-(3,4-methylenedioxy-phenoxymethyl)-1,2,3,6-tetrahydropyridine hydrochloride]", "inhibition in vivo at 25 µmol/kg": 26}, {"compound": "Cc1ccccc1[C@@H]1CCN(Cc2ccccc2)C[C@H]1COc1ccc2c(c1)OCO2", "note": "(racemic) [Example 17, (±)-trans-1-Benzyl-3-(3',4'-methylenedioxyphenoxy-methyl)-4-(2'-methylphenyl)piperidine hydrochloride]", "inhibition in vivo at 25 µmol/kg": 31}, {"compound": "Fc1ccc([C@@H]2CCN(Cc3ccccc3)C[C@H]2COc2ccc3c(c2)OCO3)cc1", "note": "(single isomer, unassigned) [Example 1, (-)-trans-l-Benzyl-4-(4'-fluorophenyl)-3-(3',4'-methylenedioxyphenoxymethyl)piperidine hydrochloride]", "inhibition in vivo at 25 µmol/kg": 66}, {"compound": "Fc1ccc(CN2CC[C@@H](c3ccc(F)cc3)[C@H](COc3ccc4c(c3)OCO4)C2)cc1", "note": "(single isomer, unassigned) [Example 9, (-) trans-l-(4'-fluorobenzyl)-4-(4'-fluorophenyl)-3-(3',4'-methylenedioxyphenoxymethyl)piperidine hydrochloride]", "inhibition in vivo at 25 µmol/kg": 71}, {"compound": "Fc1ccc([C@@H]2CCN(Cc3ccccc3F)C[C@H]2COc2ccc3c(c2)OCO3)cc1", "note": "(single isomer, unassigned) [Example 14, (-) trans-l-(2'-Fluorobenzyl)-4-(4'-fluorophenyl)-3-(3',4-methylenedioxyphenoxymethyl)piperidine hydrochloride]", "inhibition in vivo at 25 µmol/kg": 39}, {"compound": "c1ccc(CN2CC[C@@H](c3ccccc3)[C@H](COc3ccc4c(c3)OCO4)C2)cc1", "note": "(single isomer, unassigned) [Example 15, (-) trans-l-Benzyl-3-(3',4'-methylenedioxyphenoxy-methyl)-4-phenylpiperidine hydrochloride]", "inhibition in vivo at 25 µmol/kg": 67}, {"compound": "Fc1ccc(CN2CC[C@@H](c3ccccc3)[C@H](COc3ccc4c(c3)OCO4)C2)cc1", "note": "(single isomer, unassigned) [Example 16, (-) trans-l-(4'-Fluorobenzyl)-3-(3',4'-methylenedioxy-phenoxymethyl)-4-phenylpiperidine hydrochloride]", "inhibition in vivo at 25 µmol/kg": 83}, {"compound": "Fc1ccc(C2CCN(Cc3ccccc3)CC2COc2ccc3c(c2)OCO3)cc1", "note": "(single isomer, unassigned; (+)) [Example 5, (+)trans-l-Benzyl-4-(4'-fluorophenyl)-3-(3',4'-methylenedioxyphenoxymethyl)piperidine hydrochloride]", "inhibition in vivo at 25 µmol/kg": 30}]}, {"tested_on": "ethanol-induced gastric mucosal erosive damage in the rat", "experiment": "Inhibition of ethanol-induced gastric mucosal erosive damage (antiulcer test)", "type": "in vivo", "settings": "Rattus norvegicus, po, read-out: % Inhibition of gastric erosions", "units": {"inhibition in vivo at 25 µmol/kg": "%"}, "values": [{"compound": "Cc1ccc(OC[C@@H]2CN(Cc3ccccc3)CC[C@H]2c2ccc(F)cc2)cc1", "note": "(racemic) [Example 18, (±)-trans-1-Benzyl-4-(4'-fluorophenyl)-3-(4'-methylphenoxymethyl)piperidine maleate]", "inhibition in vivo at 25 µmol/kg": 21}, {"compound": "Cc1ccc(OC[C@@H]2CN(Cc3ccc(F)cc3)CC[C@H]2c2ccc(F)cc2)cc1", "note": "(racemic) [Example 19, (±)-trans-1-(4'-Fluorobenzyl)-4-(4'-fluorophenyl)-3-(4'-methylphenoxymethyl)piperidine maleate]", "inhibition in vivo at 25 µmol/kg": 69}, {"compound": "Fc1ccc(CN2CC[C@@H](c3ccc(F)cc3)[C@H](COc3ccccc3)C2)cc1", "note": "(racemic) [Example 20, (±)-trans-1-(4'-Fluorobenzyl)-4-(4'-fluorophenyl)-3-phenoxymethylpiperidine maleate]", "inhibition in vivo at 25 µmol/kg": 70}, {"compound": "Fc1ccc(OC[C@@H]2CN(Cc3ccccc3)CC[C@H]2c2ccc(F)cc2)cc1", "note": "(racemic) [Example 21, (±)-trans-1-Benzyl-3-(4'-fluorophenoxymethyl)-4-(4'-fluorophenyl)piperidine maleate]", "inhibition in vivo at 25 µmol/kg": 27}, {"compound": "Fc1ccc(CN2CC[C@@H](c3ccc(F)cc3)[C@H](COc3ccc(F)cc3)C2)cc1", "note": "(racemic) [Example 22, (±)-trans-1-(4'-Fluorobenzyl)-3-(4'-fluorophenoxy-methyl)-4-(4'-fluorophenyl)piperidine maleate]", "inhibition in vivo at 25 µmol/kg": 53}]}, {"tested_on": "Cold restraint stress - induced gastric erosions", "experiment": "Cold restraint stress-induced gastric erosions (antiulcer test)", "type": "in vivo, Male Wistar rats", "settings": "Oral Dose 25 µmol/kg in 0.5% methylcellulose, 30 min before 2.5 hours at 4°C in restraint; mucosal damage scored visually; * p<0.05, ** p<0.01 (Wilcoxon)", "protocol": "Male Wistar rats, 175-225g bodyweight are used. Forty eight hours prior to testing, animals are placed in mesh-bottomed cages with 10-12 animals per cage. Twenty-four hours prior to testing, animals are placed in the dark at a temperature of l7 °C. Sixteen hours prior to testing, food is removed from the cages. Drugs are made up in 0.5% methylcellulose, and adminstered at a volume of 1.0ml/100g bodyweight. Eight rats per group are used, with usually 1 control group and 2 test groups. Animals are placed in Bollman type restraining cages and arranged in a vertical position. Thirty minutes after dosing the animals are placed in an ambient temperature of 4 °C for 2.5 hours. At the end of this time the rats are sacrificed, the stomachs removed, cut open and pinned out on cork boards. Mucosal damage is assessed visually and scored on a subjective scale. Statistical differences between control and test groups are assessed using a Wilcoxon Ranking Test.", "values": [{"compound": "COc1ccccc1[C@@H]1CCN(Cc2ccccc2)C[C@H]1COc1ccc2c(c1)OCO2", "note": "(racemic) [Example 2, (±)trans 1-Benzyl-4-(2'-methoxyphenyl)-3-(3',4'-methylenedioxyphenoxymethyl)piperidine hydrochloride]", "% Inhibition of gastric erosions": "58* %"}, {"compound": "Fc1ccc([C@@H]2CCN(Cc3ccccc3)C[C@H]2COc2ccc3c(c2)OCO3)cc1", "note": "(single isomer, unassigned) [Example 1, (-)-trans-l-Benzyl-4-(4'-fluorophenyl)-3-(3',4'-methylenedioxyphenoxymethyl)piperidine hydrochloride]", "% Inhibition of gastric erosions": "53** %"}]}, {"tested_on": "Heidenhain pouch of the dog", "experiment": "Gastro-intestinal motility: intraluminal pressure in the Heidenhain pouch", "type": "in vivo", "settings": "dose of 0.5mg/kg i.v., conscious fasted dog, chronic Heidenhain pouch", "protocol": "Pressure changes were recorded via a saline filled catheter inserted, with airtight closure, into the fistula of a chronic Heidenhain pouch of the previously fasted and lightly restrained conscious dog. The catheter was connected to a physiological pressure transducer and pressure changes recorded on a hot wire pen recorder. Compounds were administered when the motility was in a phase of relatively low activity and the dose range determined which induced an increase in the amplitude of rhythmical contractions for a period of at least 4-5 minutes.", "values": [{"compound": "Fc1ccc([C@@H]2CCN(Cc3ccccc3)C[C@H]2COc2ccc3c(c2)OCO3)cc1", "note": "(single isomer, unassigned) [Example 1, (-)-trans-l-Benzyl-4-(4'-fluorophenyl)-3-(3',4'-methylenedioxyphenoxymethyl)piperidine hydrochloride]", "increase in the amplitude of rhythmical contractions for a period of at least 4-5 minutes": "active"}]}]}
